13 compounds from US12187723B2 (BRISTOL-MYERS SQUIBB COMPANY, priority 2019, dated 2025) can be followed below.

One assay deals with T1, human TLR9 (Homo sapiens, UniProt Q9NR96).
T1 construct: host or cells: HEK-Blue cells
T1 sequence (Q9NR96 26-1032): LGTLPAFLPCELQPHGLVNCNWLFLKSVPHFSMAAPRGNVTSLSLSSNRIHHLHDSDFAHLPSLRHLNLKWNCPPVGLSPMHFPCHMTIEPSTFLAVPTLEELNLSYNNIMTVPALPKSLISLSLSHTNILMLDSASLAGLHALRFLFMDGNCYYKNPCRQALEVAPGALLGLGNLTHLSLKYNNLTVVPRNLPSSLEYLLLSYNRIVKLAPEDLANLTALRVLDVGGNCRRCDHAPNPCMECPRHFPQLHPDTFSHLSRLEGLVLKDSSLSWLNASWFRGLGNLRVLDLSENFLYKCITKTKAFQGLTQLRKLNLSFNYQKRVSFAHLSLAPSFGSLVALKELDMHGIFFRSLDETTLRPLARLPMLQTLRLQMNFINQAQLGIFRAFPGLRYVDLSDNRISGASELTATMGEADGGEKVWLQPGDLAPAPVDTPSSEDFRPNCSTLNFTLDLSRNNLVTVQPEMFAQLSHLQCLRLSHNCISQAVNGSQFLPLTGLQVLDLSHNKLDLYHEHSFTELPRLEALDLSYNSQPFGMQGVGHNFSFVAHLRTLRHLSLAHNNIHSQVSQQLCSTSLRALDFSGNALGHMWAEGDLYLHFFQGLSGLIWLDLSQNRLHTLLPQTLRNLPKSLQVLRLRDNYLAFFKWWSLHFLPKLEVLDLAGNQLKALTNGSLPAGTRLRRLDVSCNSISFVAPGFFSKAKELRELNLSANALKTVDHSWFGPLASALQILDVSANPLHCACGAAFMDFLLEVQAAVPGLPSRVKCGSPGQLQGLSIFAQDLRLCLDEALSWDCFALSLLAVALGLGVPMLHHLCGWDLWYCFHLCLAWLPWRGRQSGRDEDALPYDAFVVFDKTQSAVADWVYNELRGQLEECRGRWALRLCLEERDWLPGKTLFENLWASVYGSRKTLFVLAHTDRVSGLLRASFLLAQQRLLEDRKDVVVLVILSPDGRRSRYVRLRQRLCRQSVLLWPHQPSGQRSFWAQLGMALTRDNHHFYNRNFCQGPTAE
In words: TLR9 inhibition reporter assay (HEK-Blue SEAP). In kind it is cell-based. To be noted: HEK-Blue cells overexpressing human TLR9, ODN2006 5 nM, 22 hour incubation. A digest of the protocol: (§1)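 Human TLR7/8/9 HEK-Blue reporter lines; dose range 0.05 nM–50 μM; 30 min RT preincubation; stimulus gardiquimod 7.5 μM / R848 15.9 μM / ODN2006 5 nM respectively; 22 h, 37 °C; SEAP detected colorimetrically.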
In general terms: Reporter assays use an easily measured gene product as a stand-in for the process of interest.

A further assay has as its target T2, human TLR8 (Homo sapiens, UniProt Q9NR97).
T2 construct: host or cells: HEK-Blue cells
T2 sequence (Q9NR97 27-1041): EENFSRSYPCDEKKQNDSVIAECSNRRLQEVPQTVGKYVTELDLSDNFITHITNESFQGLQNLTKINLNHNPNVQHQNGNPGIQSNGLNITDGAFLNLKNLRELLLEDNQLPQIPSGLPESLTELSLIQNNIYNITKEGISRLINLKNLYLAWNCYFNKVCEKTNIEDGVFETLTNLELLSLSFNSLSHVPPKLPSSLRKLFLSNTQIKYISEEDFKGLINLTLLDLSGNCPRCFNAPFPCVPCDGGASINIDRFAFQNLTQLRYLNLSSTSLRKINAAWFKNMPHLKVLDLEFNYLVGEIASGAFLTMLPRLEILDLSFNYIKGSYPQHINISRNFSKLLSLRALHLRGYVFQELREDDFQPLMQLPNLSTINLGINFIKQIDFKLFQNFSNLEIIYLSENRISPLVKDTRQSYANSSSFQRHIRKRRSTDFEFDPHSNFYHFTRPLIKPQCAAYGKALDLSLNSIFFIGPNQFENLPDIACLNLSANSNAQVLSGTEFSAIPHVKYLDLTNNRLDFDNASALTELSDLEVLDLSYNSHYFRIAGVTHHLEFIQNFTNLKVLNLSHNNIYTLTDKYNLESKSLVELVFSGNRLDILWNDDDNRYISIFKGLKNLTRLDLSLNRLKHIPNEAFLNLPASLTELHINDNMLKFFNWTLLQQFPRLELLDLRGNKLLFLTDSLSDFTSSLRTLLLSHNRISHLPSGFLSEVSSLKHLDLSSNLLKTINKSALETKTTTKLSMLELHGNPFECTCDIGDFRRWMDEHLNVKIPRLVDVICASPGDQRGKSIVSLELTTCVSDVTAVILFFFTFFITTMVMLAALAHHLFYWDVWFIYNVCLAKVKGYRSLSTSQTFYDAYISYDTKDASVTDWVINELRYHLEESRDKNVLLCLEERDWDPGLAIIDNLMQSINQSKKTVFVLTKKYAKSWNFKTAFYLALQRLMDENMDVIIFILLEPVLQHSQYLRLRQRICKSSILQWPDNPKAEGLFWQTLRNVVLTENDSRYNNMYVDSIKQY
As to the kind of experiment: TLR8 inhibition reporter assay (HEK-Blue SEAP). The class given is cell-based. The following applies: HEK-Blue cells overexpressing human TLR8, R848 15.9 μM, 22 hour incubation. A digest of the protocol: as §1

Molecules are shown by their SMILES. Where only a bound is given, the exact number is not on record here.

A word on the IC50: it is the midpoint of a concentration-inhibition curve. As to `CCC(CC)CN1CCC[C@@H](n2c(=O)[nH]c3cc(-c4cc(OC)c5ncnn5c4)c(C)cc32)C1` [Example 73, (R)-1-(1-(2-ethylbutyl)piperidin-3-yl)-5-(8-methoxy-[1,2,4]triazolo[1,5-a]pyridin-6-yl)-6-methyl-1,3-dihydro-2H-benzo[d]imidazol-2-one], the half-maximal inhibitory concentration (IC50) turned out to be 8070 nM against human TLR9 and 73.6 nM on human TLR8.

`COc1cc(-c2cc3[nH]c(=O)n([C@H]4CC[C@@H](N(C)C5CCOCC5)CC4)c3cc2C)cn2ncnc12` [Example 85, 5-(8-methoxy-[1,2,4]triazolo[1,5-a]pyridin-6-yl)-6-methyl-1-((1s,4s)-4-(methyl(tetrahydro-2H-pyran-4-yl)amino)cyclohexyl)-1,3-dihydro-2H-benzo[d]imidazol-2-one]: the IC50 at human TLR9 stood at 7940 nM; on human TLR8 it was 7.14 nM.

`COc1cc(-c2cc3[nH]c(=O)n([C@@H]4CCCN(CC5CCOCC5)C4)c3cc2C)cn2ncnc12` [Example 57, (R)-5-(8-methoxy-[1,2,4]triazolo[1,5-a]pyridin-6-yl)-6-methyl-1-(1-((tetrahydro-2H-pyran-4-yl)methyl)piperidin-3-yl)-1,3-dihydro-2H-benzo[d]imidazol-2-one]: the 50% inhibitory concentration (IC50) came out at 5940 nM on human TLR9 and 8.87 nM on human TLR8.

With `COc1cc(-c2cc3[nH]c(=O)n([C@H]4CC[C@@H](NCC5CCCCC5)CC4)c3cc2C)cn2ncnc12` [Example 66, 1-((1s,4s)-4-((cyclohexylmethyl)amino)cyclohexyl)-5-(8-methoxy-[1,2,4]triazolo[1,5-a]pyridin-6-yl)-6-methyl-1,3-dihydro-2H-benzo[d]imidazol-2-one], the IC50 worked out at 2050 nM against human TLR9 and 0.66 nM at human TLR8.

Turning to `CCC(CC)CN1CCC(n2c(=O)[nH]c3cc(-c4cc(OC)c5ncnn5c4)ccc32)CC1` [Example 75, 1-(1-(2-ethylbutyl)piperidin-4-yl)-5-(8-methoxy-[1,2,4]triazolo[1,5-a]pyridin-6-yl)-1,3-dihydro-2H-benzo[d]imidazol-2-one], the results for the IC50 against human TLR9 and on human TLR8 were 2780 nM and 1490 nM, respectively.

As for `COc1cc(-c2cc3[nH]c(=O)n([C@@H]4CCCN(CC(C)(C)C)C4)c3cc2C)cn2ncnc12` [Example 71, (R)-5-(8-methoxy-[1,2,4]triazolo[1,5-a]pyridin-6-yl)-6-methyl-1-(1-neopentylpiperidin-3-yl)-1,3-dihydro-2H-benzo[d]imidazol-2-one], the IC50 against human TLR9 is 29000 nM; at human TLR8, 147 nM.

For `CNC(=O)CN1CCC(n2c(=O)[nH]c3cc(-c4cc(OC)c5ncnn5c4)c(C)cc32)CC1` [Example 87, 2-(4-(5-(8-methoxy-[1,2,4]triazolo[1,5-a]pyridin-6-yl)-6-methyl-2-oxo-2,3-dihydro-1H-benzo[d]imidazol-1-yl)piperidin-1-yl)-N-methylacetamide], the figures for the IC50 against human TLR9 and against human TLR8 were 22400 nM and 377 nM, respectively.

For `Cc1cc2c(cc1-c1cc(C)c3ncnn3c1)[nH]c(=O)n2[C@@H]1CCCN(Cc2ncn(C)n2)C1` [Example 35, (R)-6-methyl-1-(1-((1-methyl-1H-1,2,4-triazol-3-yl)methyl)piperidin-3-yl)-5-(8-methyl-[1,2,4]triazolo[1,5-a]pyridin-6-yl)-1,3-dihydro-2H-benzo[d]imidazol-2-one], the IC50 against human TLR9 was over 50000 nM; against human TLR8 it was 220 nM.

Consider `COc1cc(-c2ccc3c(c2)[nH]c(=O)n3C2CCN(C3COC3)CC2)cn2ncnc12` [Example 80, 5-(8-methoxy-[1,2,4]triazolo[1,5-a]pyridin-6-yl)-1-(1-(oxetan-3-yl)piperidin-4-yl)-1,3-dihydro-2H-benzo[d]imidazol-2-one], for which the results for the IC50 against human TLR9 and at human TLR8 were 39600 nM and over 3130 nM, respectively.

As to `COc1cc(-c2cc3[nH]c(=O)n([C@H]4CC[C@@H](NCC5CC5)CC4)c3cc2C)cn2ncnc12` [Example 60, 1-((1s,4s)-4-((cyclopropylmethyl)amino)cyclohexyl)-5-(8-methoxy-[1,2,4]triazolo[1,5-a]pyridin-6-yl)-6-methyl-1,3-dihydro-2H-benzo[d]imidazol-2-one], the values for the IC50 on human TLR9 and at human TLR8 were 6540 nM and 5.74 nM, respectively.

For `CCC(CC)N1CCC[C@@H](n2c(=O)[nH]c3cc(-c4cc(OC)c5ncnn5c4)c(C)cc32)C1` [Example 67, (R)-5-(8-methoxy-[1,2,4]triazolo[1,5-a]pyridin-6-yl)-6-methyl-1-(1-(pentan-3-yl)piperidin-3-yl)-1,3-dihydro-2H-benzo[d]imidazol-2-one], the results for the IC50 against human TLR9 and against human TLR8 were 9620 nM and 52 nM, respectively.

Consider `COc1cc(-c2cc3[nH]c(=O)n([C@H]4CC[C@@H](NC(C)C)CC4)c3cc2C)cn2ncnc12` [Example 50, 1-((1s,4s)-4-(isopropylamino)cyclohexyl)-5-(8-methoxy-[1,2,4]triazolo[1,5-a]pyridin-6-yl)-6-methyl-1,3-dihydro-2H-benzo[d]imidazol-2-one], for which the IC50 came out at 10900 nM against human TLR9 and 4.86 nM on human TLR8.

For the compound `COc1cc(-c2ccc3c(c2)[nH]c(=O)n3C2CCN(CC3CCOCC3)CC2)cn2ncnc12` [Example 78, 5-(8-methoxy-[1,2,4]triazolo[1,5-a]pyridin-6-yl)-1-(1-((tetrahydro-2H-pyran-4-yl)methyl)piperidin-4-yl)-1,3-dihydro-2H-benzo[d]imidazol-2-one], the IC50 was determined as 2850 nM on human TLR9 and 1380 nM against human TLR8.
